Source: patent US10584128B2, “Bicyclic dihydropyrimidine-carboxamide derivatives as Rho-Kinase inhibitors” (CHIESI FARMACEUTICI S.p.A., priority 2016, dated 2020)

How the values were obtained:
Rho kinase 2 = Rho kinase 2 (Homo sapiens, UniProt O75116); assay: In vitro Rho kinase inhibitory activity assay (ADP-Glo kit, Myelin Basic Protein substrate); type: biochemical; settings: 10 μM ATP, 25° C., read-out: ROCK2 inhibitory activity (Ki, range of activity)
Method: (§1) The effectiveness of compounds of the present invention to inhibit Rho kinase activity can be determined in a 10 μl assay containing 40 mM Tris pH7.5, 20 mM MgCl2 0.1 mg/ml BSA, 50 μM DTT and 2.5 μM peptide substrate (Myelin Basic Protein) using an ADP-Glo kit (Promega). Compounds were dissolved in DMSO such that the final concentration of DMSO was 1% in the assay. All reactions/incubations are performed at 25° C. Compound (2 ul) and either Rho kinase 1 or 2 (4 μl) were mixed and incubated for 30 mins. Reactions were initiated by addition of ATP (4 μl) such that the final concentration of ATP in the assay was 10 μM. After a 1 hour incubation 10 μl of ADP-Glo Reagent was added and after a further 45 minute incubation 20 ul of Kinase Detection Buffer was added and the mixture incubated for a further 30 minutes. The luminescent signal was measured on a luminometer. […] Compounds were tested in dose-response format and the inhibition of kinase activity was calculated at each concentration of compound. To determine the IC50 (concentration of compound required to inhibit 50% of the enzyme activity) data were fit to a plot of % inhibition vs Log10 compound concentration using a sigmoidal fit with a variable slope and fixing the maximum to 100% and the minimum to 0%. To determine the Ki values the Cheng-Prusoff equation was utilized (Ki=IC50/(1+[S]/Km).

Rho kinase 1 = Rho kinase 1 (Homo sapiens, UniProt Q13464); assay: as above; type: biochemical; settings: 10 μM ATP, 25° C., read-out: ROCK1 inhibitory activity (Ki, range of activity)
Method: as §1

Chain of Rho kinase 1 (Q13464 whole entry): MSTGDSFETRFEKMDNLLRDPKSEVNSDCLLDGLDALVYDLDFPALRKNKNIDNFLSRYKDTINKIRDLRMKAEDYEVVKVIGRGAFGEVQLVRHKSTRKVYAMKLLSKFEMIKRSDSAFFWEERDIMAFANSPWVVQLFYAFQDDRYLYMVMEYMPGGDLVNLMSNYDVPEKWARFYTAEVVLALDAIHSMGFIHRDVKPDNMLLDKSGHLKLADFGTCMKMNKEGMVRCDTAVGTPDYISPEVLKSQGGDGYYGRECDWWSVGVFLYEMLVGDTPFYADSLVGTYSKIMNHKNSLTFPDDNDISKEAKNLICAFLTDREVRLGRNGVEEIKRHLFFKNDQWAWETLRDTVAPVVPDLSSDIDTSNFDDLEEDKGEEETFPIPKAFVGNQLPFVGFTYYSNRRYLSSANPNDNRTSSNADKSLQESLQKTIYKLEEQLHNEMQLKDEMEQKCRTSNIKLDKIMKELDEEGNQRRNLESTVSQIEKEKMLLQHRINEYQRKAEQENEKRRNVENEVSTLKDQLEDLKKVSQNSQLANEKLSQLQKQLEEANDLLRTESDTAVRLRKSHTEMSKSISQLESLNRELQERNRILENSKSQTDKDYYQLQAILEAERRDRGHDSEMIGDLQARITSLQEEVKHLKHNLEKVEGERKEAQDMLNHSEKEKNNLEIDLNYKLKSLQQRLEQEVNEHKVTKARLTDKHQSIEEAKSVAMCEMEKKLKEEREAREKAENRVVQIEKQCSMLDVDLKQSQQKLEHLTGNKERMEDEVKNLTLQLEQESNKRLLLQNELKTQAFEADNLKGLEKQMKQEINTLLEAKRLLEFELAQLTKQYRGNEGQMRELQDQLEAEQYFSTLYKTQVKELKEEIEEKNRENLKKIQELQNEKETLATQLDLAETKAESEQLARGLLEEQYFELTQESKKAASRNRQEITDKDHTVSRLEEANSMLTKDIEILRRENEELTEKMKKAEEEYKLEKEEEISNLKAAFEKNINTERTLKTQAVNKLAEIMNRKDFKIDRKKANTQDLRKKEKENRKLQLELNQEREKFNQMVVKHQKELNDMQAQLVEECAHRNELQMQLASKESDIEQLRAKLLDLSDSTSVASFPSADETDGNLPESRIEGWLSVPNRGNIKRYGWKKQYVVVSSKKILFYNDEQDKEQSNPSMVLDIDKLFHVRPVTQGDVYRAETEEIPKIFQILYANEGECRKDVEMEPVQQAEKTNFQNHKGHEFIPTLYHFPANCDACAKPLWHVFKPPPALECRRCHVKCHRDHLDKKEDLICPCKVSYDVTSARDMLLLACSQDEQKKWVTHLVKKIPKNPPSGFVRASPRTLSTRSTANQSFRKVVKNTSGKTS
Chain of Rho kinase 2 (O75116 whole entry): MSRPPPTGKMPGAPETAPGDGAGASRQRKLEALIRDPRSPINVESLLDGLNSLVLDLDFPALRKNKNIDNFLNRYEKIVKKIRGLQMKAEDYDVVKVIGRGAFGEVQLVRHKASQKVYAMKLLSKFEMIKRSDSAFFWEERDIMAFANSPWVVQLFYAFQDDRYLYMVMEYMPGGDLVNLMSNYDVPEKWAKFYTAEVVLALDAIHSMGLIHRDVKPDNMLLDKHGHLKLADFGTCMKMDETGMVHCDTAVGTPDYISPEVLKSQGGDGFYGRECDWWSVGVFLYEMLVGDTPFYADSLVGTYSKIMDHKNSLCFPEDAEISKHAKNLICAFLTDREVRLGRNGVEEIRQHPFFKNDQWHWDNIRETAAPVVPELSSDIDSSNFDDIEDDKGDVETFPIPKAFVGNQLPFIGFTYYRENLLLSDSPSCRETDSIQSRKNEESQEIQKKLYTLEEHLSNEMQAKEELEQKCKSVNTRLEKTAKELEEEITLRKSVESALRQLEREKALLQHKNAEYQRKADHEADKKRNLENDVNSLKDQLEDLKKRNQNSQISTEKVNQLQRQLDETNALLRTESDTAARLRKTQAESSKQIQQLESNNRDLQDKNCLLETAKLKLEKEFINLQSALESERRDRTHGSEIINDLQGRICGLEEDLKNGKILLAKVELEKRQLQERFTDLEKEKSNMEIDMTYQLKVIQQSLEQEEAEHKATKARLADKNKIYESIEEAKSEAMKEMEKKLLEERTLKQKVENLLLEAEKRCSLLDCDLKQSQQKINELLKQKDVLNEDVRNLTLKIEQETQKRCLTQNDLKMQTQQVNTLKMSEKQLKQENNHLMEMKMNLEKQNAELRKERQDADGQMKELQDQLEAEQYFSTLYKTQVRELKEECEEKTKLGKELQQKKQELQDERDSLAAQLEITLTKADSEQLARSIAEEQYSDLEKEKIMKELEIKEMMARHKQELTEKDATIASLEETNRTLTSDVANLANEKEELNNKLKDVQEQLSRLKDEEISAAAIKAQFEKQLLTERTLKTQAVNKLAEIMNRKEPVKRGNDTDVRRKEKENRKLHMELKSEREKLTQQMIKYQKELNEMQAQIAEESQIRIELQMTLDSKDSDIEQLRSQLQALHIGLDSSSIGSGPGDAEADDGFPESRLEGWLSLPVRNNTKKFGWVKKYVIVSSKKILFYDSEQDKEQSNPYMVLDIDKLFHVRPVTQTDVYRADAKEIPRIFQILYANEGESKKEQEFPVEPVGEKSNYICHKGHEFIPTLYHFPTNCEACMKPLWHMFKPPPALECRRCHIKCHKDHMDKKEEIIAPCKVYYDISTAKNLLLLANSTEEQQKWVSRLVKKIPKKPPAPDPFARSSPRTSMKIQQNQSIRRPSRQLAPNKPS

Compound	Ki (Rho kinase 2) [nM]	Ki (Rho kinase 1) [nM]
CC1=C(C(=O)Nc2ccc3[nH]ncc3c2)C(c2ccc(F)cc2)n2nc(Br)cc2N1 (centres unmarked) [Example 30, 2-bromo-7-(4-fluorophenyl)-N-(1H-indazol-5-yl)-5-methyl-4,7-dihydropyrazolo[1,5-a]pyrimidine-6-carboxamide]	< 50	< 50
CC1=C(C(=O)Nc2ccc3cnccc3c2)C(c2ccc(C(F)(F)F)c(F)c2)n2nc(N)cc2N1 (single isomer, unassigned) [130A]	> 500	> 500
COC1CN(Cc2cc3n(n2)C(c2ccc(C(F)(F)F)c(F)c2)C(C(=O)Nc2ccc4cnccc4c2)=C(C)N3)C1 (centres unmarked) [Example 100, 7-(3-fluoro-4-(trifluoromethyl)phenyl)-N-(isoquinolin-6-yl)-2-((3-methoxyazetidin-1-yl)methyl)-5-methyl-4,7-dihydropyrazolo[1,5-a]pyrimidine-6-carboxamide]	< 50	< 50
CC1=C(C(=O)Nc2ccc3cnccc3c2)C(c2ccc(C(F)(F)F)c(F)c2)n2nc(C(=O)N(C)CCCN(C)C)cc2N1 (centres unmarked) [Example 89, N2-(3-(dimethylamino)propyl)-7-(3-fluoro-4-(trifluoromethyl)phenyl)-N6-(isoquinolin-6-yl)-N2,5-dimethyl-4,7-dihydropyrazolo[1,5-a]pyrimidine-2,6-dicarboxamide]	< 50	< 50
CC1=C(C(=O)Nc2ccc3cnccc3c2)C(c2cccc3c2ccn3C)n2nc(CO)cc2N1 (centres unmarked) [Example 44, 2-(hydroxymethyl)-N-(isoquinolin-6-yl)-5-methyl-7-(1-methyl-1H-indol-4-yl)-4,7-dihydropyrazolo[1,5-a]pyrimidine-6-carboxamide]	50 to 500	50 to 500
CC1=C(C(=O)Nc2ccc3[nH]ncc3c2)C(c2ccc(C(F)(F)F)cc2)n2nc(CO)cc2N1 (single isomer, unassigned) [Example 69A, 2-(hydroxymethyl)-N-(1H-indazol-5-yl)-5-methyl-7-(4-(trifluoromethyl)phenyl)-4,7-dihydropyrazolo[1,5-a]pyrimidine-6-carboxamide]	50 to 500	50 to 500
CC1=C(C(=O)Nc2ccc3[nH]ncc3c2)C(c2ccc(C(F)(F)F)cc2F)n2nnnc2N1 (single isomer, unassigned) [Example 26A, 7-(2-fluoro-4-(trifluoromethyl)phenyl)-N-(1H-indazol-5-yl)-5-methyl-4,7-dihydrotetrazolo[1,5-a]pyrimidine-6-carboxamide]	< 50	< 50
CC1=C(C(=O)Nc2ccc3cnccc3c2)C(c2ccc(C(F)(F)F)c(F)c2)n2nc(CN3CCC4(CCN(C)CC4)C3)cc2N1 (centres unmarked) [Example 103, 7-(3-fluoro-4-(trifluoromethyl)phenyl)-N-(isoquinolin-6-yl)-5-methyl-2-((8-methyl-2,8-diazaspiro[4.5]decan-2-yl)methyl)-4,7-dihydropyrazolo[1,5-a]pyrimidine-6-carboxamide]	< 50	< 50
CC1=C(C(=O)Nc2ccc3cnccc3c2)C(c2ccc(C(F)(F)F)c(F)c2)n2nc(CN3CCC(N4CCCC4)CC3)cc2N1 (centres unmarked) [Example 105, 7-(3-fluoro-4-(trifluoromethyl)phenyl)-N-(isoquinolin-6-yl)-5-methyl-2-((4-(pyrrolidin-1-yl)piperidin-1-yl)methyl)-4,7-dihydropyrazolo[1,5-a]pyrimidine-6-carboxamide]	< 50	< 50
COCc1cc2n(n1)C(c1ccc3cc[nH]c3c1)C(C(=O)Nc1ccc3cnccc3c1)=C(C)N2 (centres unmarked) [Example 38, 7-(1H-indol-6-yl)-N-(isoquinolin-6-yl)-2-(methoxymethyl)-5-methyl-4,7-dihydropyrazolo[1,5-a]pyrimidine-6-carboxamide]	< 50	< 50
CC1=C(C(=O)Nc2ccc3[nH]ncc3c2)C(c2ccc(F)cc2)n2ncc(C(=O)N3CCN(C)CC3)c2N1 (centres unmarked) [Example 91, 7-(4-fluorophenyl)-N-(1H-indazol-5-yl)-5-methyl-3-(4-methylpiperazine-1-carbonyl)-4,7-dihydropyrazolo[1,5-a]pyrimidine-6-carboxamide]	> 500	> 500
CC1=C(C(=O)Nc2ccc3cnccc3c2)C(c2ccc(C(F)(F)F)c(F)c2)n2nc(C(=O)NCCC(=O)N3CCCC3)cc2N1 (centres unmarked) [Example 127, 7-(3-fluoro-4-(trifluoromethyl)phenyl)-N6-(isoquinolin-6-yl)-5-methyl-N2-(3-oxo-3-(pyrrolidin-1-yl)propyl)-4,7-dihydropyrazolo[1,5-a]pyrimidine-2,6-dicarboxamide]	< 50	< 50
CCOC(=O)c1cc2n(n1)C(c1ccc(C(F)(F)F)c(F)c1)C(C(=O)Nc1ccn3cnnc3c1)=C(C)N2 (centres unmarked) [Example 15, ethyl 6-([1,2,4]triazolo[4,3-a]pyridin-7-ylcarbamoyl)-7-(3-fluoro-4-(trifluoromethyl)phenyl)-5-methyl-4,7-dihydropyrazolo[1,5-a]pyrimidine-2-carboxylate]	> 500	> 500

Now from value to compound:

Ki (Rho kinase 2) [nM]	Ki (Rho kinase 1) [nM]	Compound
< 50	< 50	CC1=C(C(=O)Nc2ccc3cnccc3c2)C(c2ccc(C(F)(F)F)c(F)c2)n2nc(C(=O)N3C[C@H]4CN(C)C[C@H]4C3)cc2N1 (some centres unmarked) [Example 86, 7-(3-fluoro-4-(trifluoromethyl)phenyl)-N-(isoquinolin-6-yl)-5-methyl-2-(5-methyloctahydropyrrolo[3,4-c]pyrrole-2-carbonyl)-4,7-dihydropyrazolo[1,5-a]pyrimidine-6-carboxamide]
< 50	< 50	CC1=C(C(=O)Nc2ccc3cnccc3c2)C(c2cccc(C(F)(F)F)c2)n2nc(CO)cc2N1 (centres unmarked) [Example 51, 2-(hydroxymethyl)-N-(isoquinolin-6-yl)-5-methyl-7-(3-(trifluoromethyl)phenyl)-4,7-dihydropyrazolo[1,5-a]pyrimidine-6-carboxamide]
< 50	50 to 500	CC1=C(C(=O)Nc2ccc3cnccc3c2)C(c2cccc(Oc3ccccc3)c2)n2nc(CO)cc2N1 (centres unmarked) [Example 50, 2-(hydroxymethyl)-N-(isoquinolin-6-yl)-5-methyl-7-(3-phenoxyphenyl)-4,7-dihydropyrazolo[1,5-a]pyrimidine-6-carboxamide]
> 500	> 500	CC1=C(C(=O)Nc2ccc3cnccc3c2)C(c2ccc3ncn(C)c3c2)n2nc(CO)cc2N1 (centres unmarked) [Example 45, 2-(hydroxymethyl)-N-(isoquinolin-6-yl)-5-methyl-7-(1-methyl-1H-benzo[d]imidazol-6-yl)-4,7-dihydropyrazolo[1,5-a]pyrimidine-6-carboxamide]
< 50	< 50	CC1=C(C(=O)Nc2ccc3cnccc3c2)C(C2Cc3ccccc3C2)n2nc(CN(C)C)cc2N1 (centres unmarked) [Example 124, 7-(2,3-dihydro-1H-inden-2-yl)-2-((dimethylamino)methyl)-N-(isoquinolin-6-yl)-5-methyl-4,7-dihydropyrazolo[1,5-a]pyrimidine-6-carboxamide]
< 50	< 50	CC1=C(C(=O)Nc2ccc3cnccc3c2)C(c2ccc(Cl)c(F)c2)n2nc(CO)cc2N1 (centres unmarked) [Example 57, 7-(4-chloro-3-fluorophenyl)-2-(hydroxymethyl)-N-(isoquinolin-6-yl)-5-methyl-4,7-dihydropyrazolo[1,5-a]pyrimidine-6-carboxamide]
